{"source": "patent US20120238533A1", "about": "“(Heteroarylmethyl) Thiohydantoins as anticancer drugs” (BAYER PHARMA AKTIENGESELLSCHAFT, priority 2009, published 2012)", "key": {"[1]": {"test_system": "Eker rat leiomyoma tumor-derived cells (Elt3)", "assay": "Proliferation of Eker rat leiomyoma tumor-derived cells (Elt3), CellTiter-Glo viability assay", "format": "cell-based", "conditions": "for proliferation of Eker rat myoma cell line (Elt3): different concentrations, 7 days incubation, FIG. 1 and FIG. 2, range comparable to estradiol", "description": "Elt3 cells were obtained from Cheryl Walker (University of Texas). In comparison to other cells, Elt3 cells were characterized to be tumorigenic in nude mice (C. Walker, Recent Prog. Horm. Res., January 2002; 57: 277). Elt3 cells were grown to confluence in T-75 flasks with DMEM containing 10% FCS at 37° C. and 5% CO2. The medium was changed into 1% CCS for 24 h. 1000 cells were seeded in 96-well-plates for 24 hours. Elt3 cells were incubated with test compounds for 7 days. The CellTiter-Glo® Luminescent Cell Viability Assay (Promega) was used for determination of the number of viable cells in culture based on quantitation of the ATP present, an indicator of metabolically active cells.\nElt3 cells were obtained and grown to confluence and were seeded as described above. Elt3 cells were incubated with test compounds for 7 days. The CellTiter-Glo® Luminescent Cell Viability Assay (Promega) was used for determination of the number of viable cells in culture based on quantitation of the ATP present, an indicator of metabolically active cells."}, "[2]": {"test_system": "human uterine leiomyoma xenografts", "assay": "Xenograft of human uterine leiomyoma in immunodeficient mice, graft weight", "format": "in vivo", "conditions": "60 d, SCID mice with E2 and P pellets, p<0.05", "description": "Human uterine leiomyoma (UL) tissue was derived from any form of surgical intervention indicated for the respective diagnosis, either by hysterectomy with subsequent preparation of the tissues or by myomenucleation with or without morcellation for removal of the tissue from the abdominal cavity. Immediately after the surgery the UL tissue was placed into an appropriate sterile buffer (Vitron V7 buffer (U.S. Pat. No. 5,328,821) or Viaspan buffer for organ transplantation) at 4° C. for transport from the clinic. Under a sterile workbench, the UL tissue was cut into small pieces of 2×2×2 mm while keeping the tissue constantly moist. The small pieces of tissue were placed in tissue wells with PBS at room temperature for xenotransplantation. (M Fritsch et al. 2010, ISGE abstract & presentation). […] Therefore, graft weight was taken as a primary read-out parameter for growth of UL tissue (FIGS. 5 and 6). […]\n(§1) Experiment 2 (the Thioxoimidazolidine Derivative as Androgen Receptor Antagonist)—FIGS. 6 and 7 • Human myoma tissue from two different patients was grafted s.c. in SCID mice; and the mice were treated as described in method above. […] BrdU positive nuclei were visualized by immunohistochemical staining in formalin-fixed graft sections, pictures were taken, and BrdU-positive nuclei per area were counted using the MIRAX Histoquant software (3DHISTECH Ltd, Budapest, Hungary). […]"}, "primary myoma cells": {"test_system": "primary myoma cells", "assay": "Proliferation of primary myoma cells, CellTiter-Glo viability assay", "format": "cell-based, human", "conditions": "10^−6 M, 7 days; p<0.05 vs. DMSO; FIG. 3; range comparable to estradiol"}, "[3]": {"test_system": "human uterine leiomyoma xenografts", "assay": "Human xenograft cell proliferation (BrdU positive nuclei) in immunodeficient mice", "format": "in vivo", "conditions": "last week of Experiment 2, 15 mg/kg/d p.o. daily; two donors; FIG. 7", "description": "Human uterine leiomyoma (UL) tissue was derived from any form of surgical intervention indicated for the respective diagnosis, either by hysterectomy with subsequent preparation of the tissues or by myomenucleation with or without morcellation for removal of the tissue from the abdominal cavity. Immediately after the surgery the UL tissue was placed into an appropriate sterile buffer (Vitron V7 buffer (U.S. Pat. No. 5,328,821) or Viaspan buffer for organ transplantation) at 4° C. for transport from the clinic. Under a sterile workbench, the UL tissue was cut into small pieces of 2×2×2 mm while keeping the tissue constantly moist. The small pieces of tissue were placed in tissue wells with PBS at room temperature for xenotransplantation. (M Fritsch et al. 2010, ISGE abstract & presentation). […] Therefore, graft weight was taken as a primary read-out parameter for growth of UL tissue (FIGS. 5 and 6).\nas §1"}}}
{"smiles": "CC(O)(CS(=O)(=O)c1ccc(F)cc1)C(=O)Nc1ccc(C#N)c(C(F)(F)F)c1", "note": "(stereo not drawn) [bicalutamide, N-[4-cyano-3-(trifluoromethyl)phenyl]-3-[(4-fluorophenyl)sulfonyl]-2-hydroxy-2-methylpropanamide]", "values": [{"measurement": "effect on DHT-induced proliferation of Elt3 cells", "setting": "[1]; 10^−7 M bicalutamide with 10^−9 M DHT, p<0.05 vs. DHT, FIG. 4", "value": "abolished"}, {"measurement": "graft weight reduction vs. respective controls", "setting": "[2]; Experiment 1: 15 mg/kg/d p.o. every 2nd day, tissue from three patients, FIG. 5", "value": "> 30", "unit": "%"}]}
{"smiles": "C[C@]12CCC(=O)C[C@@H]1CC[C@@H]1[C@@H]2CC[C@]2(C)[C@@H](O)CC[C@@H]12", "note": "[dihydrotestosterone, 5α-dihydrotestosterone]", "values": [{"measurement": "proliferation of Elt3 cells", "setting": "[1]; 10^−9 M DHT, 7 days, p<0.05 vs. DMSO, FIG. 4", "value": "significantly increased"}, {"measurement": "proliferation of Eker rat myoma cell line (Elt3)", "setting": "[1]", "value": "dose-dependent increase of proliferation"}, {"measurement": "proliferation of primary myoma cells", "setting": "primary myoma cells", "value": "significantly induce an increase of proliferation"}]}
{"smiles": "C[C@]12CC[C@H]3[C@@H](CCC4=CC(=O)CC[C@@]43C)[C@@H]1CC[C@@H]2O", "note": "[testosterone]", "values": [{"measurement": "proliferation of Eker rat myoma cell line (Elt3)", "setting": "[1]", "value": "dose-dependent increase of proliferation"}, {"measurement": "proliferation of primary myoma cells", "setting": "primary myoma cells", "value": "significantly induce an increase of proliferation"}]}
{"smiles": "CC(C)(O)COc1ccc(CN2C(=S)N(c3ccc(C#N)c(C(F)(F)F)c3)C(=O)C2(C)C)cn1", "note": "[thioxoimidazolidine derivative, 4-(3-{[6-(2-hydroxy-2-methylpropoxy)pyridin-3-yl]methyl}-4,4-dimethyl-5-oxo-2-thioxoimidazolidin-1-yl)-2-(trifluoromethyl)benzonitrile]", "values": [{"measurement": "proliferation of grafts (BrdU-positive nuclei per area)", "setting": "[3]", "value": "clearly reduced"}, {"measurement": "graft weight reduction vs. respective controls", "setting": "[2]; Experiment 2: 15 mg/kg/d p.o. daily, tissue from two patients, FIG. 6", "value": "> 50", "unit": "%"}]}
